Test results taken from paper PMC6267619, “Isolation of Betulinic Acid, its Methyl Ester and Guaiane Sesquiterpenoids with Protein Tyrosine Phosphatase 1B Inhibitory Activity from the Roots of Saussurea lappa C.B.Clarke” (Molecules, 2008).
In brackets after ≈: the same amount, converted by molar mass. Several values for one entry are separate records, joined by “and”; a condition that tells them apart may be missing. Equal values may be shown once.

Molecular target: T1, PTP1B (human, recombinant) (Homo sapiens, UniProt P18031)
T1 construct: purchased BIOMOL International LP (Plymouth Meeting, PA)
T1 sequence (P18031 1-435): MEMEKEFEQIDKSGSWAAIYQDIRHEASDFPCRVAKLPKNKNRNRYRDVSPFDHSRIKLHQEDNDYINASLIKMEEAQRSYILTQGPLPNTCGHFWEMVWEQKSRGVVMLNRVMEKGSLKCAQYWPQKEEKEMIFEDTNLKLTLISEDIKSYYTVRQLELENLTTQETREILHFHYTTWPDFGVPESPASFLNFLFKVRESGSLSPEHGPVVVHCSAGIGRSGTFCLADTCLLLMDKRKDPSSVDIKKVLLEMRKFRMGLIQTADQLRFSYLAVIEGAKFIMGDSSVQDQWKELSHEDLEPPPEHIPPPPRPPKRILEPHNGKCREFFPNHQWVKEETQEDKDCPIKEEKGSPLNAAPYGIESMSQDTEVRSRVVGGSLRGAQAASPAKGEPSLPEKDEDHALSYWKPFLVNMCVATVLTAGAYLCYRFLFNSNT
Test: PTP1B inhibition assay with pNPP as substrate
Assay type: biochemical
Details: for inhibition at 30 µg/mL / Inhibition % of PTP1B activity: at 30 μg/mL; for IC50: read-out: IC50 (PTP1B inhibitory activity) (converted)
Method: PTP1B (human, recombinant) was purchased from BIOMOL® International LP (Plymouth Meeting, PA). The enzyme activity was measured using p-nitrophenyl phosphate (pNPP) as a substrate. To each of 96 wells in a microtiter plate (final volume: 100 μL) was added 2 mM pNPP and PTP1B (0.05-0.1 μg) in a buffer containing 50 mM citrate (pH 6.0), 0.1 M NaCl, 1 mM EDTA, and 1 mM dithiothreitol (DTT) with or without test compounds. Following incubation at 37°C for 30 min, the reaction was terminated with 10 M NaOH. The amount of produced p-nitrophenol was estimated by measuring the absorbance at 405 nm. The non-enzymatic hydrolysis of 2 mM pNPP was corrected by measuring the increase in absorbance at 405 nm obtained in the absence of PTP1B enzyme.

[1] = na = not active (less than 50% inhibition at the level of 30 μg/mL)

Compound | inhibition at 30 µg/mL [%] | other results
C=C1C(=O)O[C@@H]2/C=C(\C)CC/C=C(\C)CC[C@@H]12 [Compound 5, costunolide] | < 50 | –
CCCCCCCCCCCCCCCC(=O)C1=C(O)C(CO)OC1=O (stereo not shown) [RK-682, reference compound] | – | Inhibition % of PTP1B activity: 98.5%; IC50 (PTP1B inhibitory activity) [1]: 1.2 ± 0.09 µg/mL (≈ 3.26 µM)
C=C(C)[C@@H]1CC[C@]2(C(=O)O)CC[C@]3(C)[C@H](CC[C@@H]4[C@@]5(C)CC[C@H](O)C(C)(C)[C@@H]5CC[C@]43C)[C@@H]12 [Compound 1, betulinic acid] | 95.1 | IC50 [1]: 1.53 µM
C=CCCCCC/C=C\C/C=C\C/C=C\CC [Compound 12, aplotaxene] | – | Inhibition % of PTP1B activity: < 50.0%
C=C1CC[C@@H](O)[C@]2(C)CC[C@H]3C(=C)C(=O)O[C@@H]3[C@@H]12 [Compound 7, reynosin] | < 50 | –
C[C@H]1[C@H](C)CC[C@]2(C(=O)O)CC[C@]3(C)C(=CC[C@@H]4[C@@]5(C)CC[C@H](O)C(C)(C)[C@@H]5CC[C@]43C)[C@H]12 [Ursolic acid, reference compound] | 99 | –
C/C1=C\[C@H]2OC(=O)[C@@H](C)[C@@H]2CC/C(C)=C/CC1 [Compound 6, 11β,13-dihydrocostunolide] | < 50 | –
C=C1CC[C@H]2C(=C)CC[C@@H]3[C@H](OC(=O)[C@H]3C)[C@@H]12 [Compound 3, mokko lactone] | 93.1 | IC50 [1]: 6.07 µM and 6.03 µM
C=C1CC[C@H]2C(=C)CC[C@H]3C(=C)C(=O)O[C@@H]3[C@@H]12 [Compound 4, dehydrocostuslactone] | 86.2 | IC50 [1]: 28.3 µM and 28.2 µM
CC[C@H](CC[C@@H](C)[C@H]1CC[C@H]2[C@@H]3CC=C4C[C@@H](O)CC[C@]4(C)[C@H]3CC[C@]12C)C(C)C [Compound 11, β-sitosterol] | < 50 | –
C=C(C)[C@@H]1CC[C@]2(C(=O)OC)CC[C@]3(C)[C@H](CC[C@@H]4[C@@]5(C)CC[C@H](O)C(C)(C)[C@@H]5CC[C@]43C)[C@@H]12 [Compound 2, betulinic acid methyl ester] | 89.4 | IC50 [1]: 1.98 µM and 1.91 µM
CCCCCCCCCCCCCCCCCC(=O)O[C@H]1CC[C@]2(C)[C@H]3CC=C4[C@@H]5[C@@H](C)[C@H](C)CC[C@]5(C)CC[C@@]4(C)[C@]3(C)CC[C@H]2C1(C)C [Compound 13, α-amyrin stearate] | – | Inhibition % of PTP1B activity: < 50.0%
C=C1C(=O)O[C@@H]2[C@@H]3[C@@](C)(CC[C@@H]12)[C@H](O)CC[C@@]3(C)O [Compound 8, 1β-hydroxy arbusculin A] | < 50 | –
C=C1C(=O)O[C@@H]2[C@H]3C(C)=CC[C@@H](O)[C@]3(C)CC[C@@H]12 [Compound 9, santamarine] | < 50 | –
